Data as given in patent US8415342B2, “Besifloxacin ophthalmic composition for the treatment or control of infection” (Bausch & Lomb Incorporated, priority 2008, dated 2013).
Values after ≈ are worked out from the molar mass of the structure shown. Like-named read-outs stand apart in the source and are kept apart here.

Test system: Pathogens Associated With Bacterial Conjunctivitis
Assay: Integrated besifloxacin MIC data from preclinical (nonclinical) studies (Table 8)
Assay type: cell-based
Details: for MIC50: read-out: MIC50
[1] = Moraxella species, N 30, agar dilution
[2] = Proteus mirabilis Quinolone-S, N 98
[3] = Serratia marcescens Quinolone-S, N 98

## N[C@@H]1CCCCN(c2c(F)cc3c(=O)c(C(=O)O)cn(C4CC4)c3c2Cl)C1 [Besifloxacin, (R)-(+)-(3-amino-2,3,4,5,6,7-hexahydro-1H-azepin-1-yl)-8-chloro-1-cyclopropyl-6-fluoro-1,4,-dihydro-4-oxo-3-quinolinecarboxylic acid]
Legionella pneumophila, N 50
  MIC Range: 0.015 to 0.06 µg/mL
Moraxella catarrhalis, N 201
  MIC50: 0.06 µg/mL (≈ 0.152 µM)
Moraxella catarrhalis, N 201, read-out: MIC90
  MIC90: 0.12 µg/mL (≈ 0.305 µM)
[1]
  MIC Range: ≦0.06-0.13 μg/mL
  MIC50: ≤ 0.06 µg/mL
Moraxella species, N 30, agar dilution, read-out: MIC90
  MIC90: 0.13 µg/mL (≈ 0.33 µM)
Morganella morganii Quinolone-S, N 39
  MIC Range: 0.03 to 2 µg/mL
Morganella morganii, Morganella morganii Quinolone-R, N 12
  MIC50: 4 µg/mL (≈ 10.2 µM)
Morganella morganii, Morganella morganii Quinolone-R, N 12, read-out: MIC90
  MIC90: 8 µg/mL (≈ 20.3 µM)
Morganella morganii, Morganella morganii Quinolone-S, N 39, read-out: MIC90
  MIC90: 1 µg/mL (≈ 2.54 µM)
Neisseria gonorrhoeae, N 103
  MIC Range: 0.004 to 2 µg/mL
  MIC50: 0.015 µg/mL (≈ 0.0381 µM)
Neisseria gonorrhoeae, N 103, read-out: MIC90
  MIC90: 0.015 µg/mL (≈ 0.0381 µM)
Propionibacterium acnes, N 21, agar dilution
  MIC Range: 0.12 to 0.25 µg/mL
[2]
  MIC Range: 0.25 to 4 µg/mL
  MIC50: 0.5 µg/mL (≈ 1.27 µM)
Proteus mirabilis, Proteus mirabilis Quinolone-S, N 98, read-out: MIC90
  MIC90: 1 µg/mL (≈ 2.54 µM)
Pseudomonas aeruginosa Quinolone-S, N 49
  MIC Range: 0.5 to 4 µg/mL
Pseudomonas aeruginosa, Pseudomonas aeruginosa Quinolone-R, N 51
  MIC50: > 8 µg/mL
Pseudomonas aeruginosa, Pseudomonas aeruginosa Quinolone-R, N 51, read-out: MIC90
  MIC90: > 8 µg/mL
Pseudomonas aeruginosa, Pseudomonas aeruginosa Quinolone-S, N 49
  MIC50: 1 µg/mL (≈ 2.54 µM)
Pseudomonas aeruginosa, Pseudomonas aeruginosa Quinolone-S, N 49, read-out: MIC90
  MIC90: 2 µg/mL (≈ 5.08 µM)
S. aureus, value used for PK/PD ratios of Study 424
  MIC90: ^aMIC90: S. aureus = 1 μg/mL.
[3]
  MIC Range: 0.25 to 2 µg/mL
  MIC50: 1 µg/mL (≈ 2.54 µM)
Serratia marcescens, Serratia marcescens Quinolone-S, N 98, read-out: MIC90
  MIC90: 2 µg/mL (≈ 5.08 µM)
Staphylococcus aureus MRSA-QR, N 73
  MIC Range: 0.25 to 8 µg/mL
Staphylococcus aureus MSSA-QR, N 12
  MIC Range: 0.03 to 4 µg/mL
Staphylococcus aureus, MRSA, Staphylococcus aureus MRSA-QR, N 73
  MIC50: 1 µg/mL (≈ 2.54 µM)
Staphylococcus aureus, MRSA, Staphylococcus aureus MRSA-QS, N 36
  MIC50: 0.03 µg/mL (≈ 0.0762 µM)
Staphylococcus aureus, MSSA, Staphylococcus aureus MSSA-QR, N 12
  MIC50: 0.25 µg/mL (≈ 0.635 µM)
Staphylococcus aureus, MSSA, Staphylococcus aureus MSSA-QR, N 12, read-out: MIC90
  MIC90: 4 µg/mL (≈ 10.2 µM)
Staphylococcus aureus, MSSA, Staphylococcus aureus MSSA-QS, N 80
  MIC50: 0.03 µg/mL (≈ 0.0762 µM)
Staphylococcus aureus, S. aureus, value used for PK/PD ratios of Study 424, read-out: MIC90
  MIC90: 1 µg/mL
Staphylococcus epidermidis MRSE-QR, N 32
  MIC Range: 0.25 to 8 µg/mL
Staphylococcus epidermidis MSSE-QR, N 5
  MIC Range: 0.25 to 1 µg/mL
Staphylococcus epidermidis MSSE-QS, N 39
  MIC Range: 0.015 to 0.06 µg/mL
Staphylococcus epidermidis, MRSE, Staphylococcus epidermidis MRSE-QR, N 32
  MIC50: 2 µg/mL (≈ 5.08 µM)
Staphylococcus epidermidis, MRSE, Staphylococcus epidermidis MRSE-QS, N 23
  MIC50: 0.03 µg/mL (≈ 0.0762 µM)
Staphylococcus epidermidis, Staphylococcus epidermidis MSSE-QR, N 5
  MIC50: 0.5 µg/mL (≈ 1.27 µM)
Staphylococcus hominis Quinolone-R, N 35
  MIC Range: 0.125 to 2 µg/mL
Staphylococcus hominis Quinolone-S, N 15
  MIC Range: 0.015 to 0.06 µg/mL
Staphylococcus hominis, Staphylococcus hominis Quinolone-S, N 15
  MIC50: 0.03 µg/mL (≈ 0.0762 µM)
Staphylococcus hominis, Staphylococcus hominis Quinolone-S, N 15, read-out: MIC90
  MIC90: 0.06 µg/mL (≈ 0.152 µM)
Staphylococcus lugdunensis Quinolone-R, N 5
  MIC Range: 0.125 to 2 µg/mL
Staphylococcus lugdunensis Quinolone-S, N 10
  MIC Range: 0.015 to 0.06 µg/mL
Staphylococcus lugdunensis, Staphylococcus lugdunensis Quinolone-R, N 5
  MIC50: 0.5 µg/mL (≈ 1.27 µM)
Staphylococcus lugdunensis, Staphylococcus lugdunensis Quinolone-R, N 5, read-out: MIC90
  MIC90: 2 µg/mL (≈ 5.08 µM)
Staphylococcus lugdunensis, Staphylococcus lugdunensis Quinolone-S, N 10
  MIC50: 0.03 µg/mL (≈ 0.0762 µM)
Staphylococcus lugdunensis, Staphylococcus lugdunensis Quinolone-S, N 10, read-out: MIC90
  MIC90: 0.06 µg/mL (≈ 0.152 µM)
Streptococcus mitis, Streptococcus mitis group, N 90
  MIC50: 0.06 µg/mL (≈ 0.152 µM)
Streptococcus mitis, Streptococcus mitis group, N 90, read-out: MIC90
  MIC90: 0.12 µg/mL (≈ 0.305 µM)
Streptococcus oralis, N 22
  MIC Range: 0.03 to 2 µg/mL
  MIC50: 0.06 µg/mL (≈ 0.152 µM)
Streptococcus oralis, N 22, read-out: MIC90
  MIC90: 0.12 µg/mL (≈ 0.305 µM)
Streptococcus pneumoniae Penicillin-S, N 123
  MIC Range: 0.015 to 1 µg/mL
Streptococcus pneumoniae, Streptococcus pneumoniae Penicillin-I, N 28
  MIC50: 0.12 µg/mL (≈ 0.305 µM)
Streptococcus pneumoniae, Streptococcus pneumoniae Penicillin-I, N 28, read-out: MIC90
  MIC90: 0.12 µg/mL (≈ 0.305 µM)
Streptococcus pneumoniae, Streptococcus pneumoniae Penicillin-R, N 61
  MIC50: 0.12 µg/mL (≈ 0.305 µM)
Streptococcus pneumoniae, Streptococcus pneumoniae Penicillin-R, N 61, read-out: MIC90
  MIC90: 0.12 µg/mL (≈ 0.305 µM)
Streptococcus pneumoniae, Streptococcus pneumoniae Penicillin-S, N 123
  MIC50: 0.12 µg/mL (≈ 0.305 µM)
Streptococcus pneumoniae, Streptococcus pneumoniae Penicillin-S, N 123, read-out: MIC90
  MIC90: 0.12 µg/mL (≈ 0.305 µM)
Streptococcus pneumoniae, Streptococcus pneumoniae Quinolone-R, N 23
  MIC50: 1 µg/mL (≈ 2.54 µM)
Streptococcus pneumoniae, Streptococcus pneumoniae Quinolone-R, N 23, read-out: MIC90
  MIC90: 4 µg/mL (≈ 10.2 µM)
Streptococcus pyogenes, N 201
  MIC50: 0.06 µg/mL (≈ 0.152 µM)
Streptococcus pyogenes, N 201, read-out: MIC90
  MIC90: 0.12 µg/mL (≈ 0.305 µM)
Streptococcus salivarius, N 2
  MIC Range: 0.06 µg/mL (≈ 0.152 µM)
